Assay results published in patent US20080262066A1, “Azole Derivatives as Cannabinoid CB1 Receptor Antagonists” (Green Cross Corporation, priority 2007, published 2008).

Target: T1, rat CB-1 receptor (Rattus norvegicus, UniProt P20272)
T1 construct: The tissue obtained from the brain of SD rats was homogenized; from tissue; host or cells: SD rat brain (membrane pellet of homogenate)
Test: rat CB-1 receptor binding protocol with [3H]CP-55940 on SD rat brain tissue
Conditions: [3H]CP-55940 displacement, SD rat brain homogenate, 30° C., 60 min

T1 sequence (P20272 whole entry): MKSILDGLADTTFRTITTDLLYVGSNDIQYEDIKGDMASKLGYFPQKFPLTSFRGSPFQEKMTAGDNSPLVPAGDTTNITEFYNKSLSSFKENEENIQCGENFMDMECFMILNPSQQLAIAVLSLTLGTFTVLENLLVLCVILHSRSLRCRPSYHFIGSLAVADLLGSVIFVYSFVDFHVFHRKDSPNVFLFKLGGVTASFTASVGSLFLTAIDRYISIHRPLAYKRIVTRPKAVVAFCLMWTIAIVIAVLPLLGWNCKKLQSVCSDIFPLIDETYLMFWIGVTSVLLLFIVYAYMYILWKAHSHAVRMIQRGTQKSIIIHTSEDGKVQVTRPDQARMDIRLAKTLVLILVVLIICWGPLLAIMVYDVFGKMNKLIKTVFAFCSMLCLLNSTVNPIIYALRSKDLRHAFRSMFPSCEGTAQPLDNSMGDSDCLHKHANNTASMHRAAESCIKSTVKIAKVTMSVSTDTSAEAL

| IC50 (binding affinity for CB1 receptor) | Structure (SMILES) |
| --- | --- |
| insoluble | Cc1c(C(=O)NC(=O)NCC2CCCCC2)nn(-c2ccc(Cl)cc2Cl)c1-c1ccc(Cl)cc1 [Example 18, 5-(4-Chlorophenyl)-N-(cyclohexylmethylcarbamoyl)-1-(2,4-dichlorophenyl)-4-methyl-1H-pyrazole-3-carboxamide] |
| insoluble | Cc1c(C(=O)NC(=O)NC(C)(C)C)nn(-c2ccc(Cl)cc2Cl)c1-c1ccc(Cl)cc1 [Example 20, N-(tert-butylcarbamoyl)-5-(4-chlorophenyl)-1-(2,4-dichlorophenyl)-4-methyl-1H-pyrazole-3-carboxamide] |

Same assay, conditions: [3H]CP-55940 displacement, SD rat brain homogenate, 30° C., 60 min; read-out: IC50 (binding affinity for CB1 receptor)

| IC50 [nM] | Structure (SMILES) |
| --- | --- |
| 24.8 | CCC(CC)C(=O)NC(=O)c1nn(-c2ccc(Cl)cc2Cl)c(-c2ccc(Cl)cc2)c1C [Example 1, 5-(4-Chlorophenyl)-1-(2,4-dichlorophenyl)-N-(2-ethylbutanoyl)-4-methyl-1H-pyrazole-3-carboxamide] |
| 124 | Cc1c(C(=O)NC(=O)C2CC2)nn(-c2ccc(Cl)cc2Cl)c1-c1ccc(Cl)cc1 [Example 2, 5-(4-Chlorophenyl)-N-(cyclopropanecarbonyl)-1-(2,4-dichlorophenyl)-4-methyl-1H-pyrazole-3-carboxamide] |
| 127 | Cc1c(C(=O)NC(=O)C2CCC2)nn(-c2ccc(Cl)cc2Cl)c1-c1ccc(Cl)cc1 [Example 3, 5-(4-Chlorophenyl)-N-(cyclobutanecarbonyl)-1-(2,4-dichlorophenyl)-4-methyl-1H-pyrazole-3-carboxamide] |
| 67.2 | Cc1c(C(=O)NC(=O)C2CCCC2)nn(-c2ccc(Cl)cc2Cl)c1-c1ccc(Cl)cc1 [Example 4, 5-(4-Chlorophenyl)-N-(cyclopentanecarbonyl)-1-(2,4-dichlorophenyl)-4-methyl-1H-pyrazole-3-carboxamide] |
| 30.4 | Cc1c(C(=O)NC(=O)C2CCCCC2)nn(-c2ccc(Cl)cc2Cl)c1-c1ccc(Cl)cc1 [Example 5, 5-(4-Chlorophenyl)-N-(cyclohexanecarbonyl)-1-(2,4-dichlorophenyl)-4-methyl-1H-pyrazole-3-carboxamide] |
| 383 | CC(=O)NC(=O)c1nn(-c2ccc(Cl)cc2Cl)c(-c2ccc(Cl)cc2)c1C [Example 6, N-Acetyl-5-(4-chlorophenyl)-1-(2,4-dichlorophenyl)-4-methyl-1H-pyrazole-3-carboxamide] |
| 43.7 | CCCC(=O)NC(=O)c1nn(-c2ccc(Cl)cc2Cl)c(-c2ccc(Cl)cc2)c1C [Example 7, N-Butyryl-5-(4-chlorophenyl)-1-(2,4-dichlorophenyl)-4-methyl-1H-pyrazole-3-carboxamide] |
| 33.5 | CCCCCC(=O)NC(=O)c1nn(-c2ccc(Cl)cc2Cl)c(-c2ccc(Cl)cc2)c1C [Example 8, 5-(4-Chlorophenyl)-1-(2,4-dichlorophenyl)-N-hexanoyl-4-methyl-1H-pyrazole-3-carboxamide] |
| 161 | Cc1c(C(=O)NC(=O)C(C)C)nn(-c2ccc(Cl)cc2Cl)c1-c1ccc(Cl)cc1 [Example 9, 5-(4-Chlorophenyl)-1-(2,4-dichlorophenyl)-N-isobutyryl-4-methyl-1H-pyrazole-3-carboxamide] |
| 32.7 | Cc1c(C(=O)NC(=O)C(C)(C)C)nn(-c2ccc(Cl)cc2Cl)c1-c1ccc(Cl)cc1 [Example 10, 5-(4-Chlorophenyl)-1-(2,4-dichlorophenyl)-4-methyl-N-pivaloyl-1H-pyrazole-3-carboxamide] |
| 21.2 | CCC(C)(C)C(=O)NC(=O)c1nn(-c2ccc(Cl)cc2Cl)c(-c2ccc(Cl)cc2)c1C [Example 11, 5-(4-Chlorophenyl)-1-(2,4-dichlorophenyl)-N-(2,2-dimethylbutanoyl)-4-methyl-1H-pyrazole-3-carboxamide] |
| 53.4 | Cc1c(C(=O)NC(=O)CC(C)(C)C)nn(-c2ccc(Cl)cc2Cl)c1-c1ccc(Cl)cc1 [Example 12, 5-(4-Chlorophenyl)-1-(2,4-dichlorophenyl)-N-(3,3-dimethylbutanoyl)-4-methyl-1H-pyrazole-3-carboxamide] |
| 26.9 | CCCC(CCC)C(=O)NC(=O)c1nn(-c2ccc(Cl)cc2Cl)c(-c2ccc(Cl)cc2)c1C [Example 13, 5-(4-Chlorophenyl)-1-(2,4-dichlorophenyl)-4-methyl-N-(2-propylpentanoyl)-1H-pyrazole-3-carboxamide] |
| 43.1 | CCCCC(CC)C(=O)NC(=O)c1nn(-c2ccc(Cl)cc2Cl)c(-c2ccc(Cl)cc2)c1C (centres unmarked) [Example 14, 5-(4-Chlorophenyl)-1-(2,4-dichlorophenyl)-N-(2-ethylhexanoyl)-4-methyl-1H-pyrazole-3-carboxamide] |
| 138 | CCCCCCNC(=O)NC(=O)c1nn(-c2ccc(Cl)cc2Cl)c(-c2ccc(Cl)cc2)c1C [Example 15, 5-(4-Chlorophenyl)-1-(2,4-dichlorophenyl)-N-(hexylcarbamoyl)-4-methyl-1H-pyrazole-3-carboxamide] |
| 390 | Cc1c(C(=O)NC(=O)NC2CCCCC2)nn(-c2ccc(Cl)cc2Cl)c1-c1ccc(Cl)cc1 [Example 16, 5-(4-Chlorophenyl)-N-(cyclohexylcarbamoyl)-1-(2,4-dichlorophenyl)-4-methyl-1H-pyrazole-3-carboxamide] |

| IC50 [nM] | Structure (SMILES) |
| --- | --- |
| 750 | Cc1c(C(=O)NC(=O)NC2CCCCCC2)nn(-c2ccc(Cl)cc2Cl)c1-c1ccc(Cl)cc1 [Example 17, 5-(4-Chlorophenyl)-N-(cycloheptylcarbamoyl)-1-(2,4-dichlorophenyl)-4-methyl-1H-pyrazole-3-carboxamide] |
| 253 | Cc1c(C(=O)NC(=O)NC(C)C)nn(-c2ccc(Cl)cc2Cl)c1-c1ccc(Cl)cc1 [Example 19, 5-(4-Chlorophenyl)-1-(2,4-dichlorophenyl)-N-(isopropylcarbamoyl)-4-methyl-1H-pyrazole-3-carboxamide] |
| 146 | Cc1c(C(=O)NC(=O)NCc2ccccc2)nn(-c2ccc(Cl)cc2Cl)c1-c1ccc(Cl)cc1 [Example 22, N-(Benzylcarbamoyl)-5-(4-chlorophenyl)-1-(2,4-dichlorophenyl)-4-methyl-1H-pyrazole-3-carboxamide] |
| 17.8 | Cc1c(C(=O)NC(=O)OCc2ccccc2)nn(-c2ccc(Cl)cc2Cl)c1-c1ccc(Cl)cc1 [Example 23, Benzyl 5-(4-chlorophenyl)-1-(2,4-dichlorophenyl)-4-methyl-1H-pyrazole-3-carbonylcarbamate] |
| 99.7 | CCCCOC(=O)NC(=O)c1nn(-c2ccc(Cl)cc2Cl)c(-c2ccc(Cl)cc2)c1C [Example 24, Butyl 5-(4-chlorophenyl)-1-(2,4-dichlorophenyl)-4-methyl-1H-pyrazole-3-carbonylcarbamate] |
| 82.5 | Cc1c(C(=O)NC(=O)OC(C)(C)C)nn(-c2ccc(Cl)cc2Cl)c1-c1ccc(Cl)cc1 [Example 25, tert-Butyl 5-(4-chlorophenyl)-1-(2,4-dichlorophenyl)-4-methyl-1H-pyrazole-3-carbonylcarbamate] |
| 20 | CCC(CC)C(=O)NC(=O)c1nc(-c2ccc(Cl)cc2Cl)n(-c2ccc(Cl)cc2)c1C [Example 27, 1-(4-Chlorophenyl)-2-(2,4-dichlorophenyl)-N-(2-ethylbutanoyl)-5-methyl-1H-imidazole-4-carboxamide] |
| 88 | Cc1c(C(=O)NC(=O)C2CCCCC2)nc(-c2ccc(Cl)cc2Cl)n1-c1ccc(Cl)cc1 [Example 28, 1-(4-Chlorophenyl)-N-(cyclohexanecarbonyl)-2-(2,4-dichlorophenyl)-5-methyl-1H-imidazole-4-carboxamide] |
| 40 | Cc1c(C(=O)NC(=O)C(C)(C)C)nc(-c2ccc(Cl)cc2Cl)n1-c1ccc(Cl)cc1 [Example 29, 1-(4-Chlorophenyl)-2-(2,4-dichlorophenyl)-5-methyl-N-pivaloyl-1H-imidazole-4-carboxamide] |
| 39.9 | CCC(C)(C)C(=O)NC(=O)c1nc(-c2ccc(Cl)cc2Cl)n(-c2ccc(Cl)cc2)c1C [Example 30, 1-(4-Chlorophenyl)-2-(2,4-dichlorophenyl)-N-(2,2-dimethylbutanoyl)-5-methyl-1H-imidazole-4-carboxamide] |
| 75.4 | CCCC(CCC)C(=O)NC(=O)c1nc(-c2ccc(Cl)cc2Cl)n(-c2ccc(Cl)cc2)c1C [Example 31, 1-(4-Chlorophenyl)-2-(2,4-dichlorophenyl)-5-methyl-N-(2-propylpentanoyl)-1H-imidazole-4-carboxamide] |
| 46.6 | CCCCC(CC)C(=O)NC(=O)c1nc(-c2ccc(Cl)cc2Cl)n(-c2ccc(Cl)cc2)c1C (centres unmarked) [Example 32, 1-(4-Chlorophenyl)-2-(2,4-dichlorophenyl)-N-(2-ethylhexanoyl)-5-methyl-1H-imidazole-4-carboxamide] |
| 1180 | CCCCCCCC(=O)NCNC(=O)c1nn(-c2ccc(Cl)cc2Cl)c(-c2ccc(Cl)cc2)c1C [Example 33, 5-(4-Chlorophenyl)-1-(2,4-dichlorophenyl)-4-methyl-N-(octanamidomethyl)-1H-pyrazole-3-carboxamide] |
| 150 | Cc1c(C(=O)NCNC(=O)C2CCC2)nn(-c2ccc(Cl)cc2Cl)c1-c1ccc(Cl)cc1 [Example 34, 5-(4-Chlorophenyl)-N-(cyclobutanecarboxamidomethyl)-1-(2,4-dichlorophenyl)-4-methyl-1H-pyrazole-3-carboxamide] |
| 49.2 | Cc1c(C(=O)NCNC(=O)C2CCCCC2)nn(-c2ccc(Cl)cc2Cl)c1-c1ccc(Cl)cc1 [Example 35, 5-(4-Chlorophenyl)-N-(cyclohexanecarboxamidomethyl)-1-(2,4-dichlorophenyl)-4-methyl-1H-pyrazole-3-carboxamide] |

| Structure (SMILES) | IC50 [nM] |
| --- | --- |
| Cc1c(C(=O)NC(=O)OCC(C)(C)C)nn(-c2ccc(Cl)cc2Cl)c1-c1ccc(Cl)cc1 [Example 26, Neopentyl 5-(4-chlorophenyl)-1-(2,4-dichlorophenyl)-4-methyl-1H-pyrazole-3-carbonylcarbamate] | 363 |

Same assay, conditions: [3H]CP-55940 displacement, SD rat brain homogenate; read-out: IC50 (binding affinity for CB1 receptor)

| IC50 [nM] | Structure (SMILES) |
| --- | --- |
| > 10000 | Cc1c(C(=O)NC(=O)Nc2ccccc2)nn(-c2ccc(Cl)cc2Cl)c1-c1ccc(Cl)cc1 [Example 21, 5-(4-Chlorophenyl)-1-(2,4-dichlorophenyl)-4-methyl-N-(phenylcarbamoyl)-1H-pyrazole-3-carboxamide] |
